Laboratory results published in patent US8580811B2 (Ligand Pharmaceuticals Incorporated, priority 2005, dated 2013).

biological target: T1, human AR (Homo sapiens, UniProt P10275); experiment: IR Binding Assay: whole cell competitive binding of test compounds against 3H-DHT in COS-1 cells transfected with pRShAR; conditions: not given
T1 construct: expressed in transfected cells; host or cells: COS-1 cells
T1 sequence (P10275 1-920): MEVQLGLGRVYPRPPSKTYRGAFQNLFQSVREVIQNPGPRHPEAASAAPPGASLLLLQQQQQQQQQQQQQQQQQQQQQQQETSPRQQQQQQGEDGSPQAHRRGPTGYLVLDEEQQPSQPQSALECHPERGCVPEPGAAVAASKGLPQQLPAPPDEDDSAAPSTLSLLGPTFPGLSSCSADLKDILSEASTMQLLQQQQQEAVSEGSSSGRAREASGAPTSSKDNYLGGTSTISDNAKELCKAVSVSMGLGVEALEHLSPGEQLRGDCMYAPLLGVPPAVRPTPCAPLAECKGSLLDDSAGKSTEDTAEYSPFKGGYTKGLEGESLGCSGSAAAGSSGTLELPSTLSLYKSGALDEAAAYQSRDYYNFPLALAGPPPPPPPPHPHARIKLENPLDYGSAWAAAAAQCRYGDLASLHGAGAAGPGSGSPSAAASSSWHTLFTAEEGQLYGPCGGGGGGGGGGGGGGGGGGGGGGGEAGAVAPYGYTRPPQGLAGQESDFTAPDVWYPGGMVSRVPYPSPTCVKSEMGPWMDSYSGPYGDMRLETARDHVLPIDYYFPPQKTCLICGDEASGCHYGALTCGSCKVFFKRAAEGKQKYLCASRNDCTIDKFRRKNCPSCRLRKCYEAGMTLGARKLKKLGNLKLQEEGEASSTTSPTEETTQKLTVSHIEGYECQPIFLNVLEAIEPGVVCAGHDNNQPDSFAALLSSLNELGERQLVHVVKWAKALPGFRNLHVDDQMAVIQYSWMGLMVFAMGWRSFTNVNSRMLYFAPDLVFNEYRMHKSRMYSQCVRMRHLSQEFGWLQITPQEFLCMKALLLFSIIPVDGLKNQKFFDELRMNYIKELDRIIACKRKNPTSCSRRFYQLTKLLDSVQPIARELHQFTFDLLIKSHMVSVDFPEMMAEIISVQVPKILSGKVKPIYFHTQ
How it was run: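 COS-1 cells transfected with pRShAR plus β-Gal reporter, serum-starved 24 h, then exposed to 1 nM ³H-DHT with compounds at 10^−10 to 10^−6 M for 3 h at 37 °C. Bound ³H-DHT counted in lysates, normalized to β-Gal. IC50 from log-logit plot; Ki via Cheng-Prusoff using Kd from Scatchard saturation analysis.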

First: O=c1cc(C(F)(F)F)c2c(ccc3c2c2c(n3CC(O)C(F)(F)F)CCC2)[nH]1 (racemic) [Compound 246, (±)-3-(3,3,3-Trifluoro-2-hydroxy-propyl)-9-trifluoromethyl-1,2-trimethylene-3,6-dihydro-pyrrolo[3,2-f]quinolin-7-one]
Second: C=C(C)Cn1c(C)c(C)c2c3c(C(F)(F)F)cc(=O)[nH]c3ccc21 [Compound 237, 1,2-Dimethyl-3-(2-methyl-allyl)-9-trifluoromethyl-3,6-dihydro-pyrrolo[3,2-f]quinolin-7-one]
The Ki of the first is higher: 5 to 10 nM for the first, less than 5 nM for the second. The second binds more tightly here.

First: CC1c2c(ccc3[nH]c(=O)cc(Cl)c23)N(CC(F)F)C1C (racemic) [Compound 143, (±)-9-Chloro-3-(2,2-difluoroethyl)-1,2-dimethyl-1,2,3,6-tetrahydro-pyrrolo[3,2-f]quinolin-7-one]
Second: CC1c2c(ccc3[nH]c(=O)cc(Cl)c23)N(CCc2cccs2)C1C (racemic) [Compound 142, (±)-9-Chloro-1,2-dimethyl-3-(2-thien-2-yl-ethyl)-1,2,3,6-tetrahydro-pyrrolo[3,2-f]-quinolin-7-one]
The Ki of the first is higher: 5 to 10 nM for the first, less than 5 nM for the second.

`Cc1c(-c2ncco2)n(CC(F)(F)F)c2ccc3[nH]c(=O)cc(Cl)c3c12` [Compound 257, 9-Chloro-1-methyl-2-(2-oxazolyl)-3-(2,2,2-trifluoroethyl)-3,6-dihydro-pyrrolo[3,2-f]-quinolin-7-one] and `Cc1c(C)n(CC(F)(F)F)c2ccc3[nH]c(=O)cc(Cl)c3c12` [Compound 184, 9-Chloro-1,2-dimethyl-3-(2,2,2-trifluoroethyl)-3,6-dihydro-pyrrolo[3,2-f]quinolin-7-one] cannot be ordered by Ki: less than 5 nM for the first, less than 5 nM for the second.

First: Cc1cc2c3c(Cl)cc(=O)[nH]c3ccc2n1CC(F)(F)F [Compound 186, 9-Chloro-2-methyl-3-(2,2,2-trifluoroethyl)-3,6-dihydro-pyrrolo[3,2-f]quinolin-7-one]
Second: Cc1c(CO)n(CC(F)(F)F)c2ccc3[nH]c(=O)cc(Cl)c3c12 [Compound 230, 9-Chloro-2-hydroxymethyl-1-methyl-3-(2,2,2-trifluoro-ethyl)-3,6-dihydro-pyrrolo[3,2-f]-quinolin-7-one]
The Ki of the first is lower: 5 to 10 nM for the first, greater than 10 nM for the second. The first binds more tightly here.

First: CC1c2c(ccc3[nH]c(=O)cc(Cl)c23)N(CC(F)(F)C(F)(F)F)C1c1ccccc1 (racemic) [Compound 171, (±)-9-Chloro-1-methyl-3-(2,2,3,3,3-pentafluoropropyl)-2-phenyl-1,2,3,6-tetrahydro-pyrrolo[3,2-f]quinolin-7-one]
Second: CC1c2c(ccc3[nH]c(=O)cc(Cl)c23)N(CC(F)(F)F)C1c1ccccc1 (racemic) [Compound 130, (±)-9-Chloro-1-methyl-2-phenyl-3-(2,2,2-trifluoro-ethyl)-1,2,3,6-tetrahydro-pyrrolo[3,2-f]-quinolin-7-one]
The Ki of the first is higher: greater than 10 nM for the first, 5 to 10 nM for the second.

`C#CCn1c(C)c(C)c2c3c(C(F)(F)F)cc(=O)[nH]c3ccc21` [Compound 242, 1,2-Dimethyl-3-(prop-2-ynyl)-9-trifluoromethyl-3,6-dihydro-pyrrolo[3,2-f]quinolin-7-one] and `Cc1c(C)n(CC(F)(F)Cl)c2ccc3[nH]c(=O)cc(Cl)c3c12` [Compound 212, 9-Chloro-3-(2-chloro-2,2-difluoroethyl)-1,2-dimethyl-3,6-dihydro-pyrrolo[3,2-f]quinolin-7-one] cannot be ordered by Ki: less than 5 nM for the first, less than 5 nM for the second.

Compared with `CCn1cc(C)c2c3c(Cl)cc(=O)[nH]c3ccc21` [Compound 193, 9-Chloro-3-ethyl-1-methyl-3,6-dihydro-pyrrolo[3,2-f]quinolin-7-one], `Cc1c(C)n(CCCO)c2ccc3[nH]c(=O)cc(Cl)c3c12` [Compound 287, 9-Chloro-1,2-dimethyl-3-(3-hydroxypropyl)-3,6-dihydro-pyrrolo[3,2-f]quinolin-7-one] is higher in Ki: 5 to 10 nM for the first, greater than 10 nM for the second. The first binds more tightly here.

`Cc1cc2c(ccc3[nH]c(=O)cc(Cl)c32)[nH]1` [Compound 112, 9-Chloro-2-methyl-3,6-dihydro-pyrrolo[3,2-f]quinolin-7-one] and `Cc1c(-c2cccc(Br)c2)n(CC(F)(F)F)c2ccc3[nH]c(=O)cc(Cl)c3c12` [Compound 198, 2-(3-Bromophenyl)-9-Chloro-1-methyl-3-(2,2,2-trifluoroethyl)-3,6-dihydro-pyrrolo[3,2-f]-quinolin-7-one] cannot be ordered by Ki: greater than 10 nM for the first, greater than 10 nM for the second.

`CCC1C(C)c2c(ccc3[nH]c(=O)cc(C(F)(F)F)c23)N1CCC(F)(F)F` (racemic) [Compound 180, (±)-2-Ethyl-1-methyl-9-trifluoromethyl-3-(3,3,3-trifluoropropyl)-1,2,3,6-tetrahydro-pyrrolo[3,2-f]quinolin-7-one] and `CCC1C(C)c2c(ccc3[nH]c(=O)cc(Cl)c23)N1CC(F)(F)C(F)(F)F` (racemic) [Compound 177, (±)-9-Chloro-2-ethyl-1-methyl-3-(2,2,3,3,3-pentafluoropropyl)-1,2,3,6-tetrahydro-pyrrolo[3,2-f]quinolin-7-one] cannot be ordered by Ki: less than 5 nM for the first, less than 5 nM for the second.

`O=c1cc(Cl)c2c3c(ccc2[nH]1)N(CC(F)(F)F)C1CCCC31` (racemic) [Compound 126, (±)-9-Chloro-3-(2,2,2-trifluoro-ethyl)-1,2-trimethylene-1,2,3,6-tetrahydro-pyrrolo[3,2-f]-quinolin-7-one] and `O=c1cc(Cl)c2c3c(ccc2[nH]1)N(CC(F)(F)F)C1CCCCC31` (racemic) [Compound 133, (±)-9-Chloro-1,2-tetramethylene-3-(2,2,2-trifluoro-ethyl)-1,2,3,6-tetrahydro-pyrrolo[3,2-f]quinolin-7-one] cannot be ordered by Ki: less than 5 nM for the first, less than 5 nM for the second.

Going from `Cc1c(C(F)(F)F)n(CC(F)(F)C(F)(F)F)c2ccc3[nH]c(=O)cc(Cl)c3c12` [Compound 260, 9-Chloro-1-methyl-3-(2,2,3,3,3-pentafluoropropyl)-2-(trifluoromethyl)-3,6-dihydro-pyrrolo[3,2-f]quinolin-7-one] to `CC1c2c(ccc3[nH]c(=O)cc(Cl)c23)N(CC(F)(F)F)C1c1cc(C(F)(F)F)cc(C(F)(F)F)c1` (racemic) [Compound 158, (±)-9-Chloro-2-(3,5-bis(trifluoromethyl)phenyl)-1-methyl-3-(2,2,2-trifluoroethyl)-1,2,3,6-tetrahydropyrrolo[3,2-f]quinolin-7-one], the Ki falls from greater than 10 nM to less than 5 nM.

`Cc1c(-c2ccncc2)n(C[C@H](O)C(F)(F)F)c2ccc3[nH]c(=O)cc(Cl)c3c12` [Compound 273, (S)-9-Chloro-1-methyl-2-(4-pyridyl)-3-(3,3,3-trifluoro-2-hydroxy-propyl)-3,6-dihydro-pyrrolo[3,2-f]quinolin-7-one] showed a Ki greater than 10 nM.

same assay, conditions: competition with 1 nM 3H-DHT, transfected COS-1 cells, 3 h at 37° C., Cheng-Prusoff from IC50

`Cc1c(C)n(CC(O)C(F)(F)F)c2ccc3[nH]c(=O)cc(Cl)c3c12` (racemic) [Compound 279, rac-9-Chloro-1,2-dimethyl-3-(3,3,3-trifluoro-2-hydroxy-propyl)-3,6-dihydro-pyrrolo[3,2-f]-quinolin-7-one] showed a Ki of less than 5 nM.

same assay, conditions: competition with 1 nM 3H-DHT, transfected COS-1 cells, 3 h at 37° C., Cheng-Prusoff from IC50; read-out: Ki

`Cc1c(-c2cccs2)[nH]c2ccc3[nH]c(=O)cc(Cl)c3c12` [Compound 120, 9-Chloro-1-methyl-2-thien-2-yl-3,6-dihydro-pyrrolo[3,2-f]quinolin-7-one] and `COc1ccc(-c2[nH]c3ccc4[nH]c(=O)cc(Cl)c4c3c2C)cc1` [Compound 115, 9-Chloro-2-(4-methoxy-phenyl)-1-methyl-3,6-dihydro-pyrrolo[3,2-f]quinolin-7-one] cannot be ordered by Ki: greater than 10 nM for the first, greater than 10 nM for the second.

With `CCOC(=O)c1[nH]c2ccc3[nH]c(=O)cc(Cl)c3c2c1C` [Compound 111, 9-Chloro-1-methyl-7-oxo-6,7-dihydro-3H-pyrrolo[3,2-f]quinoline-2-carboxylic acid ethyl ester] the Ki was greater than 10 nM.
